Test results as given in patent US10851069B2, “Compositions of crystallized hydrophobic compounds and methods of making and using same” (Massachusetts Institute of Technology, priority 2016, dated 2020).

What was measured:
[1] = tested on: C57BL/6 mice; assay: Naked (non-encapsulated) drug crystals injected IP with 500 μm alginate spheres, 2 weeks; type: in vivo
Method: Naked crystals of GW2580 or saline-only (no drug control) were delivered intraperitoneally along with 500 μm alginate spheres for 2 weeks to C57BL/6 mice. […] Brightfield and fluorescence imaging was used to emphasize the respective presence or lack of fibrotic overgrowth on retrieved alginate spheres from either saline (control) or crystalline GW2580 treatment groups (FIG. 17C). […] GW2580 crystal testing (at doses of 0.5 and 5 mg/SC site) was also extended into the SC implant space with other immunogenic materials, ceramic glass (GL) and polymer polystyrene (PS). […] All animal protocols were approved by the MIT Committee on Animal Care, and all surgical procedures and post-operative care was supervised by MIT Division of Comparative Medicine veterinary staff. Immune-competent male non-diabetic or STZ-induced diabetic C57BL/6 mice (Jackson Laboratory, Bar Harbor, Me.) were anesthetized with 3% isoflurane in oxygen and had their abdomens shaved and sterilized using betadine and isopropanol. Preoperatively, all mice also received a 0.05 mg/kg dose of buprenorphine subcutaneously as a pre-surgical analgesic, along with 0.3 mL of 0.9% saline subcutaneously to prevent dehydration. A […] incision was made along the midline of the abdomen and the peritoneal lining was exposed using blunt dissection. The peritoneal wall was then grasped with forceps and a 0.5-1 mm incision was made along the linea alba. A desired volume of spheres (all materials without islets, as well as SLG20 spheres encapsulating rat islets) were then loaded into a sterile pipette and implanted into the peritoneal cavity through the incision. The incision was then closed using 5-0 taper-tipped polydioxanone (PDS II) absorbable sutures. The skin was then closed over the incision using a wound clip and tissue glue. At desired time points post-implantation or transplantation (with encapsulated islets), as specified in figures, mice were euthanized by CO2 administration, followed by cervical dislocation. In certain instances, 5 ml of ice cold PBS was first injected in order perform an intraperitoneal lavage to rinse out and collect free-floating intraperitoneal immune cells. An incision was then made using the forceps and scissors along the abdomen skin and peritoneal wall, and intraperitoneal lavage volumes were pipetted out into fresh 15 ml falcon tubes (each prepared with 5 ml of RPMI cell culture media). Next, a wash bottle tip was inserted into the abdominal cavity. KREBS buffer was then used to wash out all material spheres from the abdomen and into petri dishes for collection. After ensuring all the spheres were washed out or manually retrieved (if fibrosed directly to intraperitoneal tissues), they were transferred into 50 mL conical tubes for downstream processing and imaging. After intraperitoneal lavage and sphere retrieval, remaining fibrosed intraperitoneal tissues were also excised for downstream FACS and expression analyses. Single-cell suspensions of freshly excised tissues were prepared using a gentle MACS Dissociator (Miltenyi Biotec, Auburn, Calif.) according to the manufacturer's protocol. Single-cell suspensions were prepared in a passive PEB dissociation buffer (1×PBS, pH 7.2, 0.5% BSA, and 2 mM EDTA) and suspensions were passed through 70 μm filters (Cat. #22363548, Fisher Scientific, Pittsburgh, Pa.). This process removed the majority of cells adhered to the surface (>90%). […]

[2] = tested on: rat Pdx1; assay: qPCR of explanted capsules, rat islet function/viability marker; type: in vivo; conditions: explanted at approximately 430 (amorphous) or 460 (crystalline) days post-transplant
Source text: Total RNA was isolated from fibrosed spheres (with adhered tissue and immune overgrowth, if present), liquid nitrogen snap-frozen immediately following excision, using TRIzol (Invitrogen, Carlsbad, Calif.) according to the manufacturer's instructions. In addition, to help ensure complete tissue disruption, we also employed strong mechanical disruption with a Polytron homogenizer. Thus, gene expression signatures shown throughout are proportional and representative of the entire cell population present on and/or around retrieved materials. […] Mouse (5′-[…]-3′ (SEQ. ID. No.:1); reverse: 5′-CGGGTTCCGCTGTGTAAG-3′ (SEQ. ID. No.:2)) and rat (5′-CTCTCGTGCCATGTGAACC-3′ (SEQ. ID. No.:3); reverse: 5′-[…]-3′ (SEQ. ID. No.:4)) Pdx1 primers were designed using Primer Express software (Applied Biosystems, Carlsbad, Calif., USA) and evaluated using LaserGene software (DNAStar, Madison, Wis., USA) to ensure species rat (encapsulated islet) or mouse (host)-specificity, and normalized to mouse (5′-[…]-3′ (SEQ. ID. No.:5); reverse: 5′-[…]-3′ (SEQ. ID. No.:6)) and rat (5′-[…]-3′ (SEQ. ID. No.:7); reverse: 5′-[…]-3′ (SEQ. ID. No.:8)) Beta-actin, respectively. […] Results were analyzed using the comparative CT (ΔΔCT) method as described by the manufacturer. […]

COc1ccc(COc2ccc(Cc3cnc(N)nc3N)cc2OC)cc1 [GW2580, 5-[[3-Methoxy-4-[(4-methoxyphenyl)methoxy]phenyl]methyl]-2,4-pyrimidinediamine]
crystals in IP lavage liquid (differential interference contrast imaging) ([1]; 2 weeks after implantation, 1 week since last crystal injection): many crystals remained within the IP space | fibrosis of retrieved alginate microspheres (phase contrast) ([1]; daily amorphous drug, 3 mg/day, total 45 mg over 2 weeks): fibrosis-free | macrophage levels on microspheres (FACS) ([1]; naked crystals, 2 weeks): significant reductions in macrophage levels | fibrosis of retrieved alginate microspheres (phase contrast) ([1]; naked drug crystals, 4.5 mg once per week, 9 mg total): fibrosis-free | fibrosis of retrieved alginate microspheres (phase contrast) ([1]; weekly amorphous drug): not effective | Pdx1 expression, crystal versus amorphous capsules [2]: approximately 30 fold
